Measured values from US9617247B1, “Form of halosulfuron-methyl, a process for its preparation and use of the same” (priority 2015, dated 2017).

Legend:
Type in all cases: physicochemical
[1] = Cleanout test (residual halosulfuron-methyl extracted from bottle with acetonitrile); conditions: lower rating = more effective cleanout
Experimental: The test was conducted by dispersing in water a sample to produce a concentration that is normally used when applying the herbicide: 25% halosulfuron-methyl. The sample was added to tap water (300 mL) in a 400 mL beaker and magnetically stirred for 2 minutes. The mixture was then stirred for 2 minutes, whereupon the resulting dispersion was dispensed in three 100 mL aliquots to 4-oz (118 mL) polyethylene bottles. The bottles were capped, inverted twice and allowed to stand overnight.
After standing overnight, each individual bottle was inverted twice and the liquid contents were then poured out. Tap water (10 mL) was added and the bottle was inverted until all sediment was re-suspended, whereupon the contents were poured out. Tap water (100 mL) was added and the bottle was inverted twice and then allowed to stand undisturbed for 10 minutes. The bottle was inverted twice more and the contents were poured out. Acetonitrile (10 mL) was added to the bottle to extract any remaining material. The acetonitrile solution was analyzed by reversed-phase liquid chromatography with UV detection. The cleanout rating (the concentration of halosulfuron-methyl herbicide in the acetonitrile solution) is reported in % in Table 6 below.

[2] = Viscosity (stated finding, no method given)
[3] = Determining water solubility (pH 7 buffer, HPLC of supernatant); conditions: for Concentration measured by HPLC after treatment: pH 7 buffer
Experimental: A stock pH 7 buffer solution was prepared by adding aqueous sodium hydroxide solution (0.1 M, 145 mL) to aqueous potassium dihydrogen phosphate solution (0.1 M, 250 mL), and then adding sufficient distilled water to adjust the final volume to 500 mL. At least 1 time and up to about 5 times the amount of halosulfuron-methyl needed for saturation was added to a mixing vessel containing stock buffer solution at the test temperature (e.g., 20° C.). The mixture was magnetically stirred in the dark while being maintained at the test temperature. Samples were periodically removed for analysis. The samples were centrifuged using a high speed, temperature-controlled centrifuge at the test temperature for about 20 minutes at ≧12000 G to remove suspended particles. An aliquot of each supernatant was taken for analysis.
The concentration of halosulfuron-methyl in the supernatant was determined by a high pressure liquid chromatography (HPLC) with a reversed phase chromatography column and UV detection. […] Samples were successively withdrawn from the mixing vessel and analyzed until three successive samples show little or no variation in concentration. The test is preferably replicated to ensure accuracy.

[4] = OD formulation, measured vs original concentration 40%
[5] = OD formulation, original concentration 40%
[6] = SG formulation, measured vs original concentration 25%
[7] = SG formulation, original concentration 25%
[8] = WG formulation, measured vs original concentration 25%
[9] = WG formulation, original concentration 25%

Structure (SMILES): COC(=O)c1c(Cl)nn(C)c1S(=O)(=O)NC(=O)Nc1nc(OC)cc(OC)n1 [Amorphous halosulfuron-methyl, methyl 3-chloro-5-(4,6-dimethoxypyrimidin-2-ylcarbamoylsulfamoyl)-1-methylpyrazole-4-carboxylate, reference compound]
- Cleanout rating (concentration of halosulfuron-methyl in the acetonitrile solution) ([1]; OD formulation): 26%
- Cleanout rating (concentration of halosulfuron-methyl in the acetonitrile solution) ([1]; SG formulation): 10%
- Cleanout rating (concentration of halosulfuron-methyl in the acetonitrile solution) ([1]; WG formulation): 13%
- viscosity (in words) ([2]; listed as halosulfuron-methyl in amorphous state): highly viscous
- Solubility [3, 4]: 35%
- Concentration measured by HPLC after treatment [3, 5]: 14%
- Solubility [3, 6]: 60%
- Concentration measured by HPLC after treatment [3, 7]: 15%
- Solubility [3, 8]: 48%
- Concentration measured by HPLC after treatment [3, 9]: 12%

Structure (SMILES): COC(=O)c1c(Cl)nn(C)c1S(=O)(=O)NC(=O)Nc1nc(OC)cc(OC)n1 [Halosulfuron-methyl, crystalline modification I] [methyl 3-chloro-5-(4,6-dimethoxypyrimidin-2-ylcarbamoylsulfamoyl)-1-methylpyrazole-4-carboxylate]
- Cleanout rating (concentration of halosulfuron-methyl in the acetonitrile solution) ([1]; OD formulation): 5%
- Cleanout rating (concentration of halosulfuron-methyl in the acetonitrile solution) ([1]; SG formulation): 0.1%
- Cleanout rating (concentration of halosulfuron-methyl in the acetonitrile solution) ([1]; WG formulation): 2%
- viscosity (in words) ([2]; listed as crystalline modification I of halosulfuron-methyl): decrease
- Solubility [3, 4]: 88%
- Concentration measured by HPLC after treatment [3, 5]: 35%
- Solubility [3, 6]: 99.6%
- Concentration measured by HPLC after treatment [3, 7]: 24.9%
- Solubility [3, 8]: 92%
- Concentration measured by HPLC after treatment [3, 9]: 23%
- solubility (in words) ([3]; compared with amorphous halosulfuron-methyl): significant increase
